The target in the experiment is lipoteichoic acid synthase (LtaS) (Staphylococcus aureus, UniProt Q2G093). The experiment can be described thus: LTA polymerization in proteoliposomes with purified LtaS, anti-LTA blot. In kind it is biochemical.

Molecules are shown by their SMILES.

A word on the IC50: it is the concentration that gives 50% inhibition. The low end stands for greater potency, the high end for weaker potency.

lipoteichoic acid synthase (LtaS), sequence (Q2G093 whole entry): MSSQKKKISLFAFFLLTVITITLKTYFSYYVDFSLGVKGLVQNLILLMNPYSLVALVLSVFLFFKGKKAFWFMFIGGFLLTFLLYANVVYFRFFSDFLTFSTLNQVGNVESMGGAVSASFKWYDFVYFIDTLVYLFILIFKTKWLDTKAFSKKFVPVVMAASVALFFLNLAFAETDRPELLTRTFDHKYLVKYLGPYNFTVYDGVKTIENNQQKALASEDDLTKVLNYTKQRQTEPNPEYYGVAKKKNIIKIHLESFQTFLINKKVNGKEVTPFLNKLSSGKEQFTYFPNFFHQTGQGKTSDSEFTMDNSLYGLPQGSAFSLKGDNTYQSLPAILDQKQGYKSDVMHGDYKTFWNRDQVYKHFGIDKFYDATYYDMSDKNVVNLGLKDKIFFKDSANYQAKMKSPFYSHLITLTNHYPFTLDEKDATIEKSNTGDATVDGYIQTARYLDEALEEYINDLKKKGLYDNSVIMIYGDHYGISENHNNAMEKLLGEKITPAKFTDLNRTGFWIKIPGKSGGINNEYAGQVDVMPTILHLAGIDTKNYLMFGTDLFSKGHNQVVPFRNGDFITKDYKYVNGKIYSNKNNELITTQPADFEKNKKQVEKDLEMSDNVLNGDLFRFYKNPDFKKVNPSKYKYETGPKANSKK

In turn, `Nc1c(/N=N/c2ccc(-c3ccc(/N=N/c4cc(S(=O)(=O)O)c5ccccc5c4N)cc3)cc2)cc(S(=O)(=O)O)c2ccccc12` [compound 1, Congo red] came in with a half-maximal inhibitory concentration (IC50) of approximately 2 µM.
